From article PMC9552003, “Chemosensory protein 4 is required for Bradysia odoriphaga to be olfactory attracted to sulfur compounds released from Chinese chives” (Frontiers in Physiology, 2022)
Where “and” joins values, the source holds several entries; their conditions need not be identical. Equal values may be shown once. Read-outs that look alike come from different tables or passages of the source.

What was measured:
recombinant BodoCSP4 = recombinant BodoCSP4 (Bradysia odoriphaga, UniProt A0A2S0X9L0); assay: biochemical; type: binding
Chain of recombinant BodoCSP4 (A0A2S0X9L0 entry or part of it): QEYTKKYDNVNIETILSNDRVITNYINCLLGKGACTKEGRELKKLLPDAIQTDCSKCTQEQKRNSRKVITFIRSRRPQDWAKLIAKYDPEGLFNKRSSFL
Protocol: An F-380 fluorescence spectrophotometer (Tianjin, China) was used to measure the binding affinity of BodoCSP4 to the selected volatiles, using 1-N-phenyl-naphthylamine (1-NPN) as the fluorescent probe. […] Both 1-NPN and the volatile compounds were diluted in chromatographic-grade methanol to make 1 mM stock solutions. Recombinant BodoCSP4 was dissolved in 20 mM Tris-HCl (pH 7.4) and diluted to a 2 µM stock solution.

[1] = tested on: B. odoriphaga male adults; assay: Y-tube olfactometer assay after dsRNA injection; type: in vivo, Bradysia odoriphaga; details: for effect of silencing of BodoCSP4 on behavioral response of male adults to the ligand: RNAi, Y-tube olfaction assays; for behavioral response (attraction to ligand vs hexane control): n = 60, chi-square test
Text: The primer pairs dsCSP4 and dsGFP, containing the T7 promoter sequence, are listed in Table 1, and the T7 RiboMAX ™ Express RNAi System was used to synthesize double stranded RNAs (dsRNAs). The dsRNAs were microinjected into 3-day-old pupae of B. odoriphaga, and newly eclosed male adults were selected for dsRNA extraction and behavioral assays as previously described ([Yang et al., 2021b]; [Zhang et al., 2021]). According to the fluorescence binding results, after BodoCSP4 was silenced, a Y-tube olfactometer was used to assess the behavioral responses of B. odoriphaga male adults to the ligands diallyl disulfide, methyl allyl disulfide, and n-heptadecane as described in our previous report ([Yang et al., 2019]). In brief, a 10-μL solution of diallyl disulfide, methyl allyl disulfide, or n-heptadecane in hexane was placed on a strip (4 × 40 mm) of filter paper; after 10 s, the strip was placed at the end of one of the two Y-tube arms. As a control, a hexane-treated filter paper strip was placed at the end of the other arm. Two streams of clean air were passed through the Y-tube arms to the base, and one adult male that had been previously injected (at the pupal stage, 12 h before emergence) with dsBodoCSP4 or dsGFP was placed in the base of the Y-tube. If the male adult moved at least half way up one of the Y-tube arms, the result was recorded and considered an indication of attraction or repulsion depending on which arm was selected. Each of six treatment combinations (3 host plant volatiles with controls and dsBodoCSP4 or dsGFP microinjected adults) are represented by 60 replicate assays.
All RT-qPCR experiments were analyzed using one-way ANOVA followed by Tukey-HSD tests with SPSS 20.0 software. All RT-qPCR experiments were conducted using three independent biological replicates. In each of the six Y-tube olfactometer assays (3 ligands and controls without ligand × two types of microinjected B. odoriphaga adult males), behavioral responses to filter paper with or without ligand were analyzed by a chi-square test (χ 2).

[2] = tested on: B. odoriphaga male adults; design: method as in Li H. J. et al., 2007; details: extract from the abdomen of B. odoriphaga females; ref Li H. J. et al., 2007; cited from earlier work
[3] = tested on: antennae of both male and female B. odoriphaga; design: method as in Yang et al., 2019; details: ref Yang et al., 2019; cited from earlier work
[4] = tested on: B. odoriphaga male adults; design: method as in Zhang et al. (2021); details: ref Zhang et al. (2021); cited from earlier work
[5] = recombinant BodoCSP4, Supplemental Table 2, IC50, read-out: IC50
[6] = recombinant BodoCSP4, Supplemental Table 2, Ki, read-out: Ki
[7] = Ki, recombinant BodoCSP4, Supplemental Table 2, Ki
[8] = recombinant BodoCSP4, competitive with 1-NPN, values in text, read-out: binding affinity (Ki)

Structure (SMILES) | IC50 (recombinant BodoCSP4; [5]) | Ki (recombinant BodoCSP4; [6]) | IC50 (recombinant BodoCSP4) | further results
C=C1CC/C=C(/C)CC[C@@H]2[C@@H]1CC2(C)C [ß-caryophyllene] | > 50 µM | > 50 µM | – | –
CCCCCCC=O [heptanal] | – | > 50 µM | > 50 µM | –
CCCCCCCCCCCCCCCC [Hexadecane] | > 50 µM | > 50 µM | – | –
CCCCCCCC=O [Octanal] | > 50 µM | > 50 µM | – | –
C=C(C)[C@H]1CC=C(C)CC1 [(R)-(+)-Limonene] | > 50 µM | > 50 µM | – | –
O=Cc1ccccc1 [benzaldehyde] | – | – | > 50 µM | Ki (recombinant BodoCSP4; [7]): > 50 µM
CCCCCCCCCCCCCCCCC [n-Heptadecane] | – | – | – | Ki (recombinant BodoCSP4; [8]): 6.85 µM and < 10 µM; effect of silencing of BodoCSP4 on behavioral response of male adults to the ligand [1]: significantly decreased; behavioral response (attraction to ligand vs hexane control) ([1]; dsBodoCSP4-treated adult males): no olfactory attraction; behavioral response (attraction to ligand vs hexane control) ([1]; dsGFP-treated adult males): attracted; behavioral response in male adults [2]: elicits a behavioral response
CCCCOC(=O)CCC(C)=O [Butyl levulinate] | > 50 µM | > 50 µM | – | –
CCCCCCCCCCCC [Dodecane] | > 50 µM | > 50 µM | – | –
C=CC(=O)OCCCC [Butyl Acrylate] | – | – | > 50 µM | Ki (recombinant BodoCSP4; [7]): > 50 µM
CCCCC=O [Valeric aldehyde] | > 50 µM | > 50 µM | – | –
Cc1ccc(C(C)C)cc1O [Carvaceol] | > 50 µM | > 50 µM | – | –
CCCCCCCCC [Nonane] | > 50 µM | > 50 µM | – | –
C=CCSSCC=C [Diallyl disulfide] | – | – | – | Ki (recombinant BodoCSP4; binding affinity (Ki), recombinant BodoCSP4, competitive with 1-NPN, values in text): 5.71 µM and < 10 µM; effect of silencing of BodoCSP4 on behavioral response of male adults to the ligand [1]: significantly decreased; behavioral response (attraction to ligand vs hexane control) ([1]; dsBodoCSP4-treated adult males): no olfactory attraction; behavioral response (attraction to ligand vs hexane control) ([1]; dsGFP-treated adult males): attracted; electrophysiological responses from the antennae [3]: strong electrophysiological responses; effect of silencing of BodoCSP1 on behavioral response of male adults [4]: reduced the behavioral response
C=CCSSC [Methyl allyl disulfide] | – | – | – | Ki (recombinant BodoCSP4; [8]): 5.71 µM and < 10 µM; effect of silencing of BodoCSP4 on behavioral response of male adults to the ligand [1]: did not decrease; behavioral response (attraction to ligand vs hexane control) ([1]; dsBodoCSP4-treated adult males): attracted; behavioral response (attraction to ligand vs hexane control) ([1]; dsGFP-treated adult males): attracted; electrophysiological responses from the antennae [3]: strong electrophysiological responses; effect of silencing of BodoCSP1 on behavioral response of male adults [4]: reduced the behavioral response
CCCCCCCCCCCC=O [Dodecyl aldehyde] | > 50 µM | > 50 µM | – | –

Structure (SMILES) | IC50 (recombinant BodoCSP4; [5]) | Ki (recombinant BodoCSP4; [6]) | IC50 (recombinant BodoCSP4) | further results
C=C1CCC2CC1C2(C)C (centres unmarked) [ß-pinene] | > 50 µM | > 50 µM | – | –
CCCCC(C)=O [2-Hexanone] | – | – | > 50 µM | Ki (recombinant BodoCSP4; [7]): > 50 µM
CCCCCCCCC=O [nonanal] | > 50 µM | > 50 µM | – | –
CC(=O)c1ccccc1 [Acetophenone] | – | > 50 µM | > 50 µM | –
C=CC(C)(O)CCC=C(C)C (centres unmarked) [Linalool] | – | – | > 50 µM | Ki (recombinant BodoCSP4; [7]): > 50 µM
CCCCCCCCCCCCCC [Tetradecane] | > 50 µM | > 50 µM | – | –
CC(=O)/C=C/C1=C(C)CCCC1(C)C [Beta-Ionone] | – | – | > 50 µM | Ki (recombinant BodoCSP4; [7]): > 50 µM
C/C1=C\CC/C(C)=C/CC(C)(C)/C=C/C1 [a-Humulene] | > 50 µM | > 50 µM | – | –
CC12CCC(CC1)C(C)(C)O2 [1,8-Cineole] | – | > 50 µM | > 50 µM | –
c1ccc2[nH]ccc2c1 [(H-11)indole] | > 50 µM | > 50 µM | – | –
c1ccc(Nc2cccc3ccccc23)cc1 [1-NPN, N-phenyl-1-naphthylamine, reference compound] | – | – | – | Kd (recombinant BodoCSP4): 1.08 µM
COC(=O)Cc1ccccc1 [Methyl phenylacetate] | – | – | > 50 µM | Ki (recombinant BodoCSP4; [7]): > 50 µM
CCCCCCCCCC=O [Decanal] | > 50 µM | > 50 µM | – | –
CC/C=C\CCO [cis-3-Hexen-1-ol] | – | – | > 50 µM | Ki (recombinant BodoCSP4; [7]): > 50 µM
C=CC(C)=CCC=C(C)C [Ocimene] | > 50 µM | > 50 µM | – | –
CC(C)=CCCC(C)CCO (centres unmarked) [Citronellol] | > 50 µM | > 50 µM | – | –
